Measurements reported in US10596173B2, “Combination therapy of an HBV capsid assembly inhibitor and an interferon” (Hoffmann-La Roche Inc., priority 2015, dated 2020).
“And” between values parts separate entries of the source, which are not always exact repeats. Equal values may be shown once.

Key:
[1] = system: HBV; settings: HBV infected transgenic mouse model or humanized mouse models; cited from earlier work
[2] = system: HBV infected HepaRG cells; assay: CellTiter-Glo cell viability assay of HBV infected and treated HepaRG cells; format: cell-based; settings: individual compound at maximum concentration, day 11 post infection
Method: Cell viability of the HBV infected and treated HepaRG cells was determined at day 11 post infection using the CellTiter-Glo® Luminescent Cell Viability Assay (Promega, Cat. No. G7572). 100 μL of CTG reagent were added to each well of the cells, incubated for 10 min and 80 μL of each well were transferred to a new white 96 well plate. Luminescence (0.2 sec) was measured using an Envision reader (PerkinElmer).

[3] = system: HBV; assay: Combination study with Roferon in HBV infected HepaRG cells: HBV DNA in supernatant by qPCR, CalcuSyn and isobologram analysis; format: cell-based, HBV (genotype D); settings: for EC50: Hepatitis B virus, HepaRG; for Overall CI: average of CI at 50%, 75% and 90%
Method: HepG2.2.15 cells were cultured in DMEM+Glutamax I medium (Gibco, #21885) supplemented with 10% FBS, 1% Pen/Strep (Gibco, #15140) and G-418 ([…]) and used for production of infectious HBV (genotype D). 90% confluent cells from three T175 flasks were trypsinized and transferred into one collagen coated hyperflask (550 mL). Once the cells were confluent, medium was changed to DMEM+Glutamax I medium with 1% DMSO and 2.5% FBS. Once the cells were slightly over confluent, medium was changed to DMEM/F12+Glutamax I medium (Gibco, #31331) supplemented with MEM non-essential aminoacids (6 mL, Gibco, #11140), P/S (6 mL), sodium pyruvate (6 mL), DMSO (9 mL) and FBS (10 mL) (all per 500 mL medium). Medium was changed every 3 days and supernatants were harvested for 2 weeks. Virus was concentrated from supernatants by PEG precipitation and the titer (genome equivalent (GE)/mL) was determined by qPCR. Briefly, supernatants were mixed with 40% PEG solution at a ratio of 4:1, incubated on a shaker at 4° C. overnight and then centrifuged using 50 mL falcon tubes at 4° C. for one hour at 3724 g (RCF). The supernatant was discarded and the centrifugation step was repeated with new supernatant reusing the tubes until all PEG-precipitated supernatant was processed. The pellets were re-suspended in William's E Medium (Gibco, #22551) at a concentration of 10^7-10^9 genome equivalents (GE) per ml and frozen at −80° C. DNA copy number calculation was based on a standard curve generated from HBV plasmid dilutions with known concentrations.
HepaRG cells (Biopredic International, Saint-Gregoire, France) were cultured in working growth medium (500 mL Willams E Medium with 50 mL HepaRG Growth supplement from Biopredic, 5 mL Glutamax-I (Gibco, #35050) and 5 mL Pen/Strep) for 2 weeks. After 2 weeks, medium was changed to differentiation medium containing 1.8% DMSO (500 mL Willams E Medium with 50 mL HepaRG Growth supplement from Biopredic, 5 mL Pen/Strep, 5 mL Glutamax-I and 9 mL DMSO). Medium was changed twice a week up to 2 weeks. Once fully differentiated, cells were trypsinized and seeded into collagenated 96-well plates (50,000 cells/well in 100 μL) or 24-well plates (300,000 cells/well in 500 μL) in differentiation medium. Cells were cultured at least 5 days in the plates before they were infected with HBV.
The combination experimental results were analyzed using the model described by Craig et al. (Craig J, Duncan I, Whittaker L and Roberts N. (1990). Antiviral synergy between inhibitors of HIV proteinase and reverse transcriptase. Antiviral Chem. Chemother. 4:161-166). EC50 values were obtained for compounds used alone and in combination with others. To relate these two values and describe the degree of synergy/additivity/antagonism between them, the Fractional Inhibitory Concentration (FIC) was first calculated and used to generate isobolograms. Briefly, the FIC is the ratio of the EC50 of the drug in combination to the EC50 of the drug on its own: FIC=ratio[EC50combination:EC50alone]
The Combination Index (CI), obtained by adding the FICs of the two compounds, was then used to describe the effect between compounds used in the combinations. A CI<1 means synergism, a CI=1 means additivity and a CI>1 means antagonism.
Each experiment was performed in at least triplicate and performed independently 3 times. Mean percent inhibition of HBV replication based on DNA copy number was calculated from all experiments and analyzed using the Calcusyn software (CalcuSyn Version 2.11, Biosoft, Cambridge, UK) based on the Loewe additivity model described by Chou and Talalay (Chou T C (2006). Theoretical basis, experimental design, and computerized simulation of synergism and antagonism in drug combination studies. Pharmacol. Rev., 58:621-681). For the CalcuSyn evaluation, data from three diagonal lanes with a constant concentration ratio for the drug combinations of each lane from the checkerboard plate were used (marked in bold in Table 2). […]

[4] = individual compound, HBV infected HepaRG cells, HBV DNA, mean of n independent experiments
[5] = CalcuSyn, HBV DNA, molar ratio 1:0.3
[6] = CalcuSyn, HBV DNA, molar ratio 1:1
[7] = CalcuSyn, HBV DNA, molar ratio 1:3

## COC(=O)C1=C(C)NC(c2ncc(F)cc2F)=N[C@H]1c1ccc(F)cc1Cl [Bay 41-4109]
[1]
  in vivo efficacy: demonstrated in vivo efficacy with HBV DNA reduction

## CCOC(=O)C1=C(CN2CCN3C(=O)N(CC(C)(C)C(=O)O)C[C@@H]3C2)NC(c2nccs2)=N[C@H]1c1cccc(F)c1C [Compound 4, 3-[(8aS)-7-[[(4S)-5-ethoxycarbonyl-4-(3-fluoro-2-methyl-phenyl)-2-thiazol-2-yl-1,4-dihydropyrimidin-6-yl]methyl]-3-oxo-5,6,8,8a-tetrahydro-1H-imidazo[1,5-a]pyrazin-2-yl]-2,2-dimethyl-propanoic acid]
[2]
  % cell viability at max concentration ± SD (n): 96.1 ± 14.5 (3) %
[3]; [4]
  EC50: 8.7 nM

## Nc1ccn([C@@H]2CS[C@H](CO)O2)c(=O)n1 [3TC and 3TC]
[3]; [5]
  CI value at 50% HBV inhibition: 1.12 ± 0.24
  CI value at 75% HBV inhibition: 1.05 ± 0.16
  CI value at 90% HBV inhibition: 1.02 ± 0.11
[3]; [6]
  CI value at 50% HBV inhibition: 0.98 ± 0.12
  CI value at 75% HBV inhibition: 1.00 ± 0.14
  CI value at 90% HBV inhibition: 1.06 ± 0.11
[3]; [7]
  CI value at 50% HBV inhibition: 1.02 ± 0.22
  CI value at 75% HBV inhibition: 1.03 ± 0.22
  CI value at 90% HBV inhibition: 1.08 ± 0.21
[3]; CalcuSyn, molar ratio 1:0.3
  Overall CI: 1.06 ± 0.16
[3]; CalcuSyn, molar ratio 1:1
  Overall CI: 1.02 ± 0.11
[3]; CalcuSyn, molar ratio 1:3
  Overall CI: 1.04 ± 0.19
[3]; CalcuSyn, based on overall CI values
  Assessment of combination effect: additivity

## Nc1ccn([C@@H]2CS[C@H](CO)O2)c(=O)n1 [Compound 3TC, Lamivudine]
[2]
  % cell viability at max concentration ± SD (n): 86.4 ± 2.6 (3) % and 104.5 ± 2.6 (3) %
[3]; [4]
  EC50: 12.9 nM

## interferon alfa-2a [Roferon]
[3]; [4]
  EC50 ± SD (n): 0.9 IU/mL ± 0.5 (3) and 1.8 IU/ml ± 1.7 (3) IU/mL

## COC(=O)C1=C(CN2CCOC[C@H]2C(=O)O)N=C(c2nccs2)N[C@H]1c1ccc(F)cc1Cl [Compound 1, (S)-4-[(R)-6-(2-Chloro-4-fluoro-phenyl)-5-methoxycarbonyl-2-thiazol-2-yl-3,6-dihydro-pyrimidin-4-ylmethyl]-morpholine-3-carboxylic acid]
[2]
  % cell viability at max concentration ± SD (n): 96.8 ± 4.2 (3) %
[3]; [4]
  EC50: 21.2 nM
